The text below walks through data of ChEMBL document CHEMBL1138883, “Synthesis and biological evaluation of new asymmetrical bisintercalators as potential antitumor drugs” (2006).

Structures are written as SMILES. Calls of active or inactive are those of the source. The calls are words filed in the database; no cut-off is given here.

Test [1] deals with PC-3. Briefly: Induction of apoptosis in PC3 measured as percentage of late apoptotic cells by biparametric PI/Annexin V assay at 5.1 uM after 8 hrs. The format is functional, Homo sapiens.
Test [2] concerns PC-3. Briefly: Induction of apoptosis in PC3 cells measured as percentage of living cells by biparametric PI/Annexin V assay at 5.1 uM after 24 hrs. Type of test: functional, Homo sapiens.
The subject of test [3] is PC-3. Kind of test: Induction of apoptosis in PC3 cells by DNA fragmentation assay. Type of test: functional, cell-based. To be noted: Homo sapiens.
Test [4] deals with PC-3. Briefly: Induction of apoptosis in PC3 measured as percentage of early apoptotic cells by biparametric PI/Annexin V assay at 5.1 uM after 8 hrs. The format is functional, Homo sapiens.
The subject of test [5] is PC-3. Kind of test: Induction of apoptosis in PC3 cells measured as percentage of living cells by biparametric PI/Annexin V assay at 5.1 uM after 4 hrs. Type of test: functional, Homo sapiens.
For test [6], the system named is PC-3. Kind of test: Induction of apoptosis in PC3 measured as percentage of necrotic cells by biparametric PI/Annexin V assay at 5.1 uM after 24 hrs. The format is functional, Homo sapiens.
Test [7] concerns PC-3. Briefly: Induction of apoptosis in PC3 measured as percentage of early apoptotic cells by biparametric PI/Annexin V assay at 5.1 uM after 24 hrs. The format is functional, Homo sapiens.
Test [8] has as its system PC-3. Kind of test: Induction of apoptosis in PC3 cells measured as percentage of living cells by biparametric PI/Annexin V assay at 5.1 uM after 48 hrs. The format is functional, Homo sapiens.
Test [9] deals with PC-3. Briefly: Induction of apoptosis in PC3 measured as percentage of necrotic cells by biparametric PI/Annexin V assay at 5.1 uM after 48 hrs. The format is functional, Homo sapiens.
Test [10] has as its system PC-3. Briefly: Induction of apoptosis in PC3 measured as percentage of necrotic cells by biparametric PI/Annexin V assay at 5.1 uM after 8 hrs. The format is functional, Homo sapiens.
In test [11] the test system is PC-3. Kind of test: Induction of apoptosis in PC3 measured as percentage of necrotic cells by biparametric PI/Annexin V assay at 5.1 uM after 4 hrs. Type of test: functional, Homo sapiens.
Test [12] relates to PC-3. Kind of test: Induction of apoptosis in PC3 cells measured as percentage of living cells by biparametric PI/Annexin V assay at 5.1 uM after 8 hrs. The format is functional, Homo sapiens.
Test [13] concerns PC-3. Briefly: Reduction in PC3 cell viability after 48 hrs by FDA flow cytometer assay. The format is functional, cell-based. Conditions: Homo sapiens.
For test [14], the system named is PC-3. Briefly: Induction of apoptosis in PC3 measured as percentage of late apoptotic cells by biparametric PI/Annexin V assay at 5.1 uM after 48 hrs. Type of test: functional, Homo sapiens.
The test system of test [15] is PC-3. Kind of test: Induction of apoptosis in PC3 measured as percentage of early apoptotic cells by biparametric PI/Annexin V assay at 5.1 uM after 4 hrs. The format is functional, Homo sapiens.
Test [16] can be described thus: Ratio of K(app) for [A-T] to [G-C].
Test [17] deals with PC-3. Kind of test: Induction of apoptosis in PC3 measured as percentage of early apoptotic cells by biparametric PI/Annexin V assay at 5.1 uM after 48 hrs. The format is functional, Homo sapiens.
Test [18] has as its system PC-3. Briefly: Induction of apoptosis in PC3 measured as percentage of late apoptotic cells by biparametric PI/Annexin V assay at 5.1 uM after 4 hrs. Type of test: functional, Homo sapiens.
Test [19] has as its system PC-3. Kind of test: Induction of apoptosis in PC3 measured as percentage of late apoptotic cells by biparametric PI/Annexin V assay at 5.1 uM after 24 hrs. Type of test: functional, Homo sapiens.
For test [20], the system named is PC-3. Kind of test: Cytotoxicity against PC3 cells by SRB assay after 48 hrs. Type of test: functional. Conditions: Homo sapiens, PC-3, 48 h.
In test [21] the test system is PC-3. Kind of test: Induction of apoptosis in PC3 cells measured as percentage of living cells by biparametric PI/Annexin V assay at 3.6 uM after 8 hrs. The format is functional, Homo sapiens.
Test [22] concerns PC-3. Kind of test: Induction of apoptosis in PC3 measured as percentage of necrotic cells by biparametric PI/Annexin V assay at 3.6 uM after 48 hrs. The format is functional, Homo sapiens.
Test [23] deals with PC-3. Kind of test: Induction of apoptosis in PC3 measured as percentage of necrotic cells by biparametric PI/Annexin V assay at 3.6 uM after 8 hrs. Type of test: functional, Homo sapiens.
Test [24] concerns PC-3. Kind of test: Induction of apoptosis in PC3 measured as percentage of necrotic cells by biparametric PI/Annexin V assay at 3.6 uM after 4 hrs. The format is functional, Homo sapiens.
The test system of test [25] is PC-3. Kind of test: Induction of apoptosis in PC3 measured as percentage of early apoptotic cells by biparametric PI/Annexin V assay at 3.6 uM after 48 hrs. Type of test: functional, Homo sapiens.
Test [26] deals with PC-3. Kind of test: Induction of apoptosis in PC3 measured as percentage of early apoptotic cells by biparametric PI/Annexin V assay at 3.6 uM after 4 hrs. Type of test: functional, Homo sapiens.
For test [27], the system named is PC-3. Briefly: Induction of apoptosis in PC3 measured as percentage of late apoptotic cells by biparametric PI/Annexin V assay at 3.6 uM after 48 hrs. The format is functional, Homo sapiens.
Test [28] concerns PC-3. Briefly: Induction of apoptosis in PC3 cells measured as percentage of living cells by biparametric PI/Annexin V assay at 3.6 uM after 24 hrs. The format is functional, Homo sapiens.
The subject of test [29] is PC-3. Briefly: Induction of apoptosis in PC3 cells measured as percentage of living cells by biparametric PI/Annexin V assay at 3.6 uM after 4 hrs. Type of test: functional, Homo sapiens.
Test [30] relates to PC-3. Briefly: Induction of apoptosis in PC3 measured as percentage of early apoptotic cells by biparametric PI/Annexin V assay at 3.6 uM after 8 hrs. Type of test: functional, Homo sapiens.
In test [31] the test system is PC-3. Kind of test: Induction of apoptosis in PC3 measured as percentage of early apoptotic cells by biparametric PI/Annexin V assay at 3.6 uM after 24 hrs. The format is functional, Homo sapiens.
In test [32] the test system is PC-3. Kind of test: Induction of apoptosis in PC3 measured as percentage of late apoptotic cells by biparametric PI/Annexin V assay at 3.6 uM after 24 hrs. Type of test: functional, Homo sapiens.
Test [33] has as its system PC-3. Kind of test: Induction of apoptosis in PC3 cells measured as percentage of living cells by biparametric PI/Annexin V assay at 3.6 uM after 48 hrs. The format is functional, Homo sapiens.
In test [34] the test system is PC-3. Briefly: Induction of necrosis in PC3 cells by DNA fragmentation assay. Conditions: Homo sapiens. The format is functional, cell-based.
Test [35] deals with PC-3. Briefly: Induction of apoptosis in PC3 measured as percentage of necrotic cells by biparametric PI/Annexin V assay at 3.6 uM after 24 hrs. The format is functional, Homo sapiens.
The test system of test [36] is PC-3. Kind of test: Induction of apoptosis in PC3 measured as percentage of late apoptotic cells by biparametric PI/Annexin V assay at 3.6 uM after 8 hrs. The format is functional, Homo sapiens.
In test [37] the test system is PC-3. Briefly: Induction of apoptosis in PC3 measured as percentage of late apoptotic cells by biparametric PI/Annexin V assay at 3.6 uM after 4 hrs. Type of test: functional, Homo sapiens.

As for `Cc1ccc2c(c1)c(=O)c1c(NCCCN(C)CCCN3C(=O)c4cccc5cccc(c45)C3=O)ccc3nnn2c31.Cl`, the Activity in test [1] amounted to 1.9%; in [2], 11.9%; in test [4], 1.3%; in [5], 69.4%; in [6] it was 33%; in test [7], 39%. The Activity in test [8] is 1%; in test [9], 27.3%; in test [10] it was 42%; in [11], 28.6%; in test [12], 54.8%; in test [13], “Time-dependent effect”. Besides, the Activity in [14] is reported as 15.7%; in [15] it was 0.9%; in test [17] it was 57%; in test [18], 1.1%; in test [19], 16.1%. Also, the result in test [3] was Active. The Selectivity ratio in [16] turned out to be 1.7. For the same molecule, it took 17 nM to inhibit growth in test [20] by half (GI50). Moreover, in test [20], the LC50 (concentration for 50% net cell kill) was 5100 nM. The same molecule gave a TGI in test [20] of 1600 nM.
`COc1ccc2nc3c(C(=O)NCCN(C)C)ccc(NCCCN(C)CCCN4C(=O)c5cccc6cccc(c56)C4=O)c3c(O)c2c1.Cl`: the Activity in test [21] stood at 62.7%; in test [22], 24.4%; in test [23], 32.9%; in [24] it was 16.4%; in test [25], 59%; in test [26] it was 1.3%. Moreover, the Activity is 14.3% in test [27]; 35.5% in [28]; “Time-dependent effect” in test [13]; 81.1% in test [29]; 1.5% in test [30]; 25.9% in test [31]. Moreover, the Activity in [32] came to 16.3%; in test [33] it was 2.3%; in test [35] it was 22.3%; in test [36], 2.9%; in [37], 1.2%. Moreover, the outcome in test [3] and in test [34] was Active. For the same molecule, in test [16], the Selectivity ratio was 30. The molecule further yielded a GI50 in test [20] of 0.16 nM. In addition, the LC50 (concentration for 50% net cell kill) in test [20] was determined as 3600 nM. Besides, the TGI in [20] stood at 14 nM.
